Experimental data as given in paper PMC7170919, “The chloroalkaloid (−)-acutumine is biosynthesized via a Fe(II)- and 2-oxoglutarate-dependent halogenase in Menispermaceae plants” (Nature Communications, 2020).

Key:
Assay type in all cases: biochemical
McDAH = target: T1, McDAH (Menispermum canadense, UniProt A0A6M3RHU8); experiment: in vitro enzyme assay, LC-MS; conditions: 2OG-dependent chlorination, 1 mM NaCl
T1 sequence (A0A6M3RHU8 1-351): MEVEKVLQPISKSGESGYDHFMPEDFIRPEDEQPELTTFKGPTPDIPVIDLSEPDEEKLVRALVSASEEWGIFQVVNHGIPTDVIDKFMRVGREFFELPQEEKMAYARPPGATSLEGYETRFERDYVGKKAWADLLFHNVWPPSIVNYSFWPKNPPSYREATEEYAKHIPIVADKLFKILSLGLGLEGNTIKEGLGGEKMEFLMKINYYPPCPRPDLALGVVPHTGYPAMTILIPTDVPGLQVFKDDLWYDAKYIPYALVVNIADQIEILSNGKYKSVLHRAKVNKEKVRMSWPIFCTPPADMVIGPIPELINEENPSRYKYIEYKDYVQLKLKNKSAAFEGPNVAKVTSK

SaDAH [1] = target: T2, SaDAH (Sinomenium acutum, UniProt A0A6M3RD65, G226D); experiment: in vitro enzyme assay, LC-HRAM-MS; conditions: 2OG 500 µM, NaCl 1 mM, Fe(II) 2 mM, ascorbate 5 mM, Tris pH 8.0, room temperature; hydroxylation
T2 construct: codon-optimized, N-terminal 8xHis-TEV tag (pHis8-4) cleaved, E. coli BL21(DE3)
T2 sequence (A0A6M3RD65 entry or part of it G226D): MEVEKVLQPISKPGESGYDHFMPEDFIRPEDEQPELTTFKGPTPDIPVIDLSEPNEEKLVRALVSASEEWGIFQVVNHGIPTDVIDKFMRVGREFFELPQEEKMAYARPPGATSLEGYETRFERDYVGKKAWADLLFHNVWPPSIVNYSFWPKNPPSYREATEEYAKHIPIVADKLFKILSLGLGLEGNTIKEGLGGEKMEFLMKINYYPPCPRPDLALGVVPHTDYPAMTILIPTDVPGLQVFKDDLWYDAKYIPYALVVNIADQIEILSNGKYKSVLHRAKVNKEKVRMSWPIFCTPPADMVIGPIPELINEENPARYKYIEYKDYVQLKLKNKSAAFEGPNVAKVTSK

SaDAH [2] = target: T3, SaDAH (Sinomenium acutum, UniProt A0A6M3RD65); experiment: LC-MS quantification of (−)-acutumine formed; conditions: 2OG 500 µM, NaCl 1 mM, ascorbate 5 mM, (NH4)2Fe(SO4)2 2 mM; 30 nM enzyme, 10 min; chlorination
T3 construct: codon-optimized, N-terminal 8xHis-TEV tag (pHis8-4) cleaved, E. coli BL21(DE3)
T3 sequence (A0A6M3RD65 entry or part of it): as the sequence (A0A6M3RD65 entry or part of it G226D) above, with D226G counted along it

- Km (SaDAH [2]): 18.4 ± 7.13 µM
Compound: COC1=CC(=O)C2(CCC34C(OC)=C(OC)C(=O)CC23CCN4C)C1O (single isomer, unassigned; (-)) [compound 5, (−)-dechloroacutumine]
- in vitro enzyme assay, LC-MS (McDAH): Recombinant McDAH exhibits identical activity to SaDAH
- in vitro enzyme assay, LC-HRAM-MS (SaDAH [1]): exhibits exclusive (−)-dechloroacutumine hydroxylase activity to give the hydroxylation product 11-hydroxy-dechloroacutumine
